{"source": "patent US8993559B2", "about": "“Use of ibogamine congeners for treating obesity” (Albany Medical College, priority 2008, dated 2015)", "key": {"[1]": {"assay": "Weight gain paradigm: sucrose-drinking animals", "assay_type": "in vivo, rat", "method": "FIG. 11 is a graph showing effects of repeated administration of 18-MC (20 mg/kg i.p. for 14 days) on body fat depots (mean±SEM). *=p<0.05. On the seventh day after the last injection of 18-MC, animals were euthanized in CO2 chambers and decapitated. Necropsies were performed to remove periovarian, perirenal and inguinal fat pads.\nAnimals were maintained on a regular chow and water for the duration of experiment (three weeks). On the first day of experiment, animals received additional bottle containing 30% sucrose solution which remained available for the following three weeks; the bottle sides were switched daily. The body weights of rats were recorded daily for the following two weeks immediately prior administration of 18-MC (20 mg/kg, i.p.) or vehicle. After the last 18-MC injection, the weights were monitored for the additional week.\nFor the weight gain experiment, the data for all four treatment groups from days 1-21 were analyzed using two-way ANOVA, with treatment and time as main factors. Furthermore, the data for the first two weeks and the last week for water-vehicle, water-18-MC and sucrose 18-MC were analyzed separately using two-ANOVA, with treatment and time as main factors. Post-hoc comparison tests (Fisher LSD tests) were conducted when appropriate."}, "[2]": {"test_system": "Sprague-Dawley rats", "assay": "Operant sucrose self-administration procedure", "assay_type": "in vivo, rat", "method": "Naïve female Sprague-Dawley rats (230-270 g; Taconic, Germantown, N.Y.) were housed individually and maintained on a normal 12 hr light cycle (light on/off at 7 a.m./7 p.m.) in the colony room. For all experiments, food (normal chow) and water were provided ad libitum. The experiments were conducted in accordance with the “Guide for the Care and Use of Laboratory Animals” (National Academy of Sciences, 1996).\nRats were water deprived for 23 h so that shaping of the bar-press response could initially be accomplished by training rats to bar-press for water. Thereafter, in non-deprived rats, oral sucrose self-administration testing began with a 16-h nocturnal session followed by daily 1-h sessions, 5 days (Monday-Friday) a week. Rats were allowed access to two levers mounted 15 cm apart on the front wall of each operant test chamber (Coulbourn Instruments, Allentown, Pa.). A response on either of the two levers produced a sucrose reward (15% solution; 0.01 ml) on a FR1 TO 20 (fixed ratio 1 with a 20 sec time-out) schedule. After rates of sucrose self-administration stabilized (20% variation from one day to the next across 5 days), usually after 2 weeks of testing, 18-MC (10-40 mg/kg) or vehicle was administered i.p. 15 minutes before a test session. Each rat typically received two or three different treatments (in randomized order) spaced at least one week apart.\nThe operant self-administration data were analyzed by two-way ANOVA with reward (sucrose vs. water) and dose of 18-MC as the main factors. Subsequent post hoc tests (Newman-Keuls) compared the effects of 18-MC to baseline."}, "[3]": {"test_system": "rats", "settings": "cited from earlier work"}, "[4]": {"test_system": "rats", "assay": "Drug self-administration and water-reinforced responding in rats (earlier studies)", "assay_type": "in vivo, rat", "method": "Other work has extended the “anti-addictive” effect of 18-MC to oral intake of ethanol. In all cases, these effects last for at least 24 hours. […] Unlike 18-MC, ibogaine and many other iboga alkaloid congeners (approximately 30 tested) decrease responding for water as well as for drugs. And it was precisely this unique specificity that led to development and study of 18-MC."}, "[5]": {"test_system": "rats", "assay": "Ad libitum sucrose intake over 24 hours (choice of sucrose or water)", "assay_type": "in vivo, rat", "method": "FIG. 9 is a graph showing effects of 18-MC (10, 20, 40 mg/kg i.p.) on consumption of sucrose. Each bar represents mean 24 hour consumption of 5% sucrose solution expressed as percent of baseline (S.E.M.): *=p<0.05.\nAs described above, systemic 18-MC can decrease operant responding for sucrose and local administration of 18-MC into the dorsolateral tegmentum can also do so. These findings, which were unanticipated, led to investigation of the possibility that 18-MC might be useful in decreasing intake of sweet substances when available ad libitum along with normal rat chow. Rats offered a choice of drinking sucrose (15%) or water have strong preferences (70-80%) for sucrose. […] Whether 18-MC's effect on sucrose intake has a consequence in terms of body weight regulation was explored in a subsequent study. Rats given unlimited access to sucrose (30%) for two weeks gained excessive weight, consistent with other studies of sucrose-induced obesity. […] 18-MC had no effect on the body weight of “normal” rats having only water available."}, "[6]": {"assay": "Weight gain of rats on high fat or low fat diet", "assay_type": "in vivo, rat", "method": "FIG. 12 is a graph showing effects of 18-MC (20 mg/kg i.p.) on weight gain of rats. Each data point represents daily weight (g, ±S.E.M.) of rats having access to high fat (HF) or low fat (LF) diet and water, and treated with 18-MC or vehicle. The black bar indicates the duration of treatment with 18-MC: =<0.05, 18-MC vs vehicle.\nThe development of obesity in rats maintained on a high fat diet is perhaps the commonly used animal model of diet-induced obesity."}, "[7]": {"test_system": "rats", "settings": "systemic pretreatment; cited from earlier work"}}, "note": "“Also recorded” adds a separate entry of the source.", "data": [{"smiles": "COCC[C@H]1CC2CN3CCc4c([nH]c5ccccc45)[C@](C(=O)OC)(C2)[C@H]13", "note": "[18-MC, 18-methoxycoronaridine]", "values": [{"measurement": "weights of fat depots", "setting": "[1]; 18-MC 20 mg/kg i.p. for 14 days, periovarian, perirenal and inguinal fat pads", "value": "decreased"}, {"measurement": "recovery of the weight gain after cessation of treatment", "setting": "[1]; 18-MC-treated sucrose-drinking group", "value": "did not occur for another week"}, {"measurement": "sucrose-induced (excessive) weight gain", "setting": "[1]; 30% sucrose, 18-MC 20 mg/kg i.p. daily for two weeks", "value": "attenuated; also recorded: totally prevented"}, {"measurement": "body weights vs vehicle-treated sucrose-drinking animals", "setting": "[1]; 30% sucrose, 18-MC (40 mg/kg i.p.) as printed, all time points except the first", "value": "significantly lower"}, {"measurement": "effect on sucrose responding", "setting": "[2]; 18-MC 20 mg/kg i.p., 10, 15 and 20% sucrose", "value": "no significant effect"}, {"measurement": "decrease of sucrose responding", "setting": "[2]; 18-MC 20 mg/kg i.p., not significant", "value": "10-20%"}, {"measurement": "operant responding for sucrose", "setting": "[2]; 18-MC 40 mg/kg i.p., 15 min before 1-h session, 15% sucrose", "value": "reduced; also recorded: decreased"}, {"measurement": "operant responding for water", "setting": "[2]; 18-MC up to 40 mg/kg i.p., water 0.01 ml/barpress", "value": "no effect"}, {"measurement": "signs of acute opioid withdrawal", "setting": "[3]", "value": "alleviate"}, {"measurement": "decrease of drug self-administration", "setting": "[4]; 20 mg/kg, i.p., depending on the drug", "value": "40-80%"}, {"measurement": "motor effects", "setting": "[4]; at times when self-administration is decreased", "value": "no motor effects"}, {"measurement": "duration of effects on drug self-administration", "setting": "[4]; rat, in vivo", "value": "at least 24 hours"}, {"measurement": "effect on oral intake of ethanol", "setting": "[4]; rat, in vivo, po", "value": "anti-addictive"}, {"measurement": "cocaine, methamphetamine and nicotine self-administration", "setting": "[4]; rats", "value": "decreases"}, {"measurement": "morphine self-administration", "setting": "[4]; rats", "value": "dose-dependently decreases"}, {"measurement": "responding for water (non-drug reinforcer)", "setting": "[4]; same doses that decrease drug self-administration", "value": "do not affect"}, {"measurement": "water intake over the 24 hours following administration", "setting": "[5]; 18-MC 10-40 mg/kg i.p.", "value": "no significant effect"}, {"measurement": "intake of sucrose over the 24 hours following administration", "setting": "[5]; 18-MC 10-40 mg/kg i.p., sucrose (15%) or water", "value": "decreased"}, {"measurement": "ceiling dose beyond which no further effect on ad libitum sucrose intake", "setting": "[5]; dose range 10-40 mg/kg i.p.", "value": 10, "unit": "mg/kg"}, {"measurement": "excessive weight gain attributable to the high fat diet", "setting": "[6]; 18-MC 20 mg/kg i.p. daily for two weeks, 45 kcal % fat", "value": "totally prevented"}, {"measurement": "decrease of weights of fat depots in HF rats", "setting": "[6]; 18-MC 20 mg/kg i.p. for two weeks, high fat diet", "value": "about 35%"}, {"measurement": "decrease of weights of fat depots in LF rats", "setting": "[6]; 18-MC 20 mg/kg i.p. for two weeks, low fat diet (10 kcal % fat)", "value": "not in LF rats"}, {"measurement": "intravenous self-administration of morphine and other drugs", "setting": "[7]", "value": "reduce"}]}]}
